According to patent US9029542B2 (priority 2011, dated 2015):
“And” between values parts separate entries of the source, which are not always exact repeats. Identical values can stand only once. Like-named read-outs stand apart in the source and are kept apart here.

What was measured:
[1] = tested on: rape; conditions: in vivo
[2] = tested on: rape; test: whole plant or invertebrate; type: in vivo; conditions: for plant injury at 10 µg/g / plant injury at 100 µg/g: 120 h
[3] = tested on: corn; conditions: in vivo
[4] = tested on: Wheat; conditions: in vivo
[5] = tested on: cockspur grass; test: whole plant or invertebrate; type: in vivo; conditions: Echinochloa crus-galli; for pest or weed control at 10 µg/g / pest or weed control at 100 µg/g: 120 h
[6] = tested on: weeds of the expanded weed killing spectrum; conditions: in vivo
[7] = tested on: cotton; conditions: in vivo
[8] = tested on: soybean; conditions: in vivo
[9] = tested on: Capsella bursa-pastoris; test: whole plant or invertebrate; type: in vivo; conditions: 600 h, read-out: weed clearing activity, Capsella bursa-pastoris Postemergence
[10] = tested on: Eclipta prostrata; test: whole plant or invertebrate; type: in vivo
[11] = tested on: Amaranthus retroflexus; test: whole plant or invertebrate; type: in vivo
[12] = tested on: rice; conditions: in vivo
[13] = tested on: Abutilon theophrasti; test: whole plant or invertebrate; type: in vivo; conditions: for pest or weed control at 150 g/ha: Abutilon theophrasti, 600 h, read-out: Postemergence weed clearing activity, Abutilon theophrasti
[14] = tested on: Sorghum; test: whole plant or invertebrate; type: in vivo
[15] = tested on: Wheat; test: whole plant or invertebrate; type: in vivo; conditions: Triticum aestivum
[16] = tested on: Radish; test: whole plant or invertebrate; type: in vivo; conditions: Raphanus sativus
[17] = tested on: Cucumber; test: whole plant or invertebrate; type: in vivo; conditions: Cucumis sativus
[18] = read-out: weed clearing activity, rape Root (Effect)
[19] = read-out: weed clearing activity, rape Stem (Effect)
[20] = read-out: weed clearing activity, cockspur grass Root (Effect)
[21] = read-out: weed clearing activity, cockspur grass Stem (Effect)
[22] = Eclipta prostrata, 600 h, read-out: weed clearing activity, Eclipta prostrata Postemergence
[23] = Amaranthus retroflexus, 600 h, read-out: weed clearing activity, Amaranthus retroflexus Postemergence
[24] = read-out: inhibitory activity, Sorghum Root
[25] = read-out: inhibitory activity, Sorghum Stem
[26] = read-out: inhibitory activity, Rape Root
[27] = read-out: inhibitory activity, Rape Stem
[28] = read-out: inhibitory activity, Cockspur grass Root
[29] = read-out: inhibitory activity, Cockspur grass Stem
[30] = read-out: inhibitory activity, Wheat Root
[31] = read-out: inhibitory activity, Wheat Stem
[32] = read-out: inhibitory activity, Radish Root
[33] = read-out: inhibitory activity, Radish Stem
[34] = read-out: inhibitory activity, Cucumber Root
[35] = read-out: inhibitory activity, Cucumber Stem

In the case of `CC(OC(=O)COc1ccc(Cl)cc1Cl)P1(=O)OCC(C)(C)CO1` (centres unmarked) [Compound 11, 2-(2,4-dichlorophenoxyethylacyloxy)(methyl)methyl-5,5-dimethyl-1,3,2-dioxaphosphorinan-2-one phosphonate], the “Inhibitory activity on the crops, Rape” value [1] is reported as 40, the plant injury at 10 µg/g [2, 18] is reported as 99% and the plant injury at 100 µg/g [2, 18] is reported as 99%. For the same compound, the plant injury at 10 µg/g [2, 19] was 88%, the plant injury at 100 µg/g [2, 19] was 92% and the “Inhibitory activity on the crops, Corn” value [3] was 0. For the same compound, the “Inhibitory activity on the crops, Wheat” value [4] was 0, the pest or weed control at 10 µg/g [5, 20] was 100% and the pest or weed control at 100 µg/g [5, 20] was 100%. For the same compound, the pest or weed control at 10 µg/g [5, 21] was 55%, the pest or weed control at 100 µg/g [5, 21] was 57% and the “Activity of expanded weed killing spectrum, Abutilon theophrasti” value [6] was 70% and 75%. The “Activity of expanded weed killing spectrum, Alligator alternanthera” value (“Activity … Alligator alternanthera” for short) [6] was 60%, the “Activity of expanded weed killing spectrum, Cayenne pepper” value (“Activity … Cayenne pepper” for short) [6] was 70% and 75% and the “Activity of expanded weed killing spectrum, Cucumis sativus” value (“Activity … Cucumis sativus” below) [6] was 40% and 50%. The “Activity of expanded weed killing spectrum, Pakchoi” value [6] was 85%, the “Activity of expanded weed killing spectrum, Pigweed” value [6] was 85% and the “Activity of expanded weed killing spectrum, Tomato” value [6] was 70% and 75%. For the same compound, the “Inhibitory activity on the crops, Cotton” value [7] was 30, the “Inhibitory activity on the crops, Soybean” value [8] was 30 and the pest or weed control at 37.5 g/ha [9] was 90%. It also gave a pest or weed control at 75 g/ha [9] of 100%, a pest or weed control at 150 g/ha [9] of 100% and a pest or weed control at 37.5 g/ha [10, 22] of 50%. The pest or weed control at 75 g/ha [10, 22] was 85%, the pest or weed control at 150 g/ha [10, 22] was 70% and the “weed clearing activity, Eclipta prostrata Postemergence (※)” value ([10]; in vivo) was 90^※ %. The “weed clearing activity, Eclipta prostrata Postemergence, value in parentheses” value ([10]; in vivo) was 85(70) %, the pest or weed control at 37.5 g/ha [11, 23] was 70% and the pest or weed control at 75 g/ha [11, 23] was 90%. For the same compound, the pest or weed control at 150 g/ha [11, 23] was 80%, the “weed clearing activity, Amaranthus retroflexus Postemergence (※)” value ([11]; in vivo) was 100^※ % and the “weed clearing activity, Amaranthus retroflexus Postemergence, value in parentheses” value ([11]; in vivo) was 90(70) %. For the same compound, the “Inhibitory activity on the crops, Rice” value [12] was 10.
Compound `Cc1cc(Cl)ccc1OCC(=O)OC(C)P1(=O)OCC(C)(C)CO1` (centres unmarked) [Compound 34, 2-(2-methyl-4-chlorophenoxyethylacyloxy)(methyl)methyl-5,5-dimethyl-1,3,2-dioxaphosphorinan-2-one phosphonate] has a pest or weed control at 150 g/ha [13] of 75%, an inhibition at 100 µg/mL [14, 24] of 100% and an inhibition at 100 µg/mL [14, 25] of 100%. For the same compound, the inhibition at 100 µg/mL [2, 26] was 100%, the inhibition at 100 µg/mL [2, 27] was 100% and the inhibition at 100 µg/mL [5, 28] was 70%. The inhibition at 100 µg/mL [5, 29] was 80%, the “Activity … Alligator alternanthera” value [6] was 60% and 70% and the “Activity of expanded weed killing spectrum, Ammania” value [6] was 50% and 60%. For the same compound, the “Activity of expanded weed killing spectrum, Cabbage” value [6] was 70%, the “Activity of expanded weed killing spectrum, Capsella bursa-pastoris” value [6] was 85% and the “Activity … Cayenne pepper” value [6] was 70%. For the same compound, the “Activity … Cucumis sativus” value [6] was 60% and 70%, the “Activity of expanded weed killing spectrum, Monochoria” value [6] was 30% and 60% and the “Activity of expanded weed killing spectrum, Pakchoi” value [6] was 70%. For the same compound, the “Activity of expanded weed killing spectrum, Pigweed” value [6] was 70% and 75%, the “Activity of expanded weed killing spectrum, Rape” value [6] was 85% and the “Activity of expanded weed killing spectrum, Rumex acetosa” value [6] was 70% and 75%. For the same compound, the “Activity of expanded weed killing spectrum, Tomato” value [6] was 60% and 70%, the “Activity of expanded weed killing spectrum, Vicia cracca” value [6] was 70% and the inhibition at 100 µg/mL [15, 30] was 90%. The inhibition at 100 µg/mL [15, 31] was 60%, the inhibition at 100 µg/mL [16, 32] was 100% and the inhibition at 100 µg/mL [16, 33] was 100%. For the same compound, the pest or weed control at 150 g/ha [9] was 90%, the pest or weed control at 150 g/ha [10, 22] was 80% and the “Weed clearing activity, Eclipta prostrata, Postemergence” value ([10]; in vivo) was 85%. For the same compound, the pest or weed control at 150 g/ha [11, 23] was 90%, the inhibition at 100 µg/mL [17, 34] was 100% and the inhibition at 100 µg/mL [17, 35] was 100%.
For `CC(OC(=O)COc1ccc(F)cc1Cl)P1(=O)OCC(C)(C)CO1` (centres unmarked) [Compound 37, 2-(2-chloro-4-fluorphenoxyethylacyloxy)(methyl)methyl-5,5-dimethyl-1,3,2-dioxaphosphorinan-2-one phosphonate], the pest or weed control at 150 g/ha [13] was 90%, the “Weed clearing activity, Abutilon theophrasti, Postemergence” value ([13]; in vivo) was 70% and the inhibition at 100 µg/mL [14, 24] was 0%. For the same compound, the inhibition at 100 µg/mL [14, 25] was 0%, the inhibition at 100 µg/mL [2, 26] was 100% and the inhibition at 100 µg/mL [2, 27] was 100%. The inhibition at 100 µg/mL [5, 28] was 0%, the inhibition at 100 µg/mL [5, 29] was 0% and the “Activity … Alligator alternanthera” value [6] was 60%. For the same compound, the “Activity of expanded weed killing spectrum, Ammania” value [6] was 60%, the “Activity of expanded weed killing spectrum, Cabbage” value [6] was 70% and the “Activity … Cayenne pepper” value [6] was 60% and 75%. For the same compound, the “Activity … Cucumis sativus” value [6] was 60% and 70%, the “Activity of expanded weed killing spectrum, Eclipta prostrata” value [6] was 60% and the “Activity of expanded weed killing spectrum, Monochoria” value [6] was 50%. For the same compound, the “Activity of expanded weed killing spectrum, Rape” value [6] was 70% and 75%, the “Activity of expanded weed killing spectrum, Rumex acetosa” value [6] was 70% and 75% and the “Activity of expanded weed killing spectrum, Vicia cracca” value [6] was 70%. For the same compound, the inhibition at 100 µg/mL [15, 30] was 60%, the inhibition at 100 µg/mL [15, 31] was 30% and the inhibition at 100 µg/mL [16, 32] was 90%. The inhibition at 100 µg/mL [16, 33] was 30%, the pest or weed control at 150 g/ha [9] was 95% and the pest or weed control at 150 g/ha [10, 22] was 85%. For the same compound, the “Weed clearing activity, Eclipta prostrata, Postemergence” value ([10]; in vivo) was 60% and 85%, the pest or weed control at 150 g/ha [11, 23] was 90% and the “Weed clearing activity, Amaranthus retroflexus, Postemergence” value ([11]; in vivo) was 60%. The inhibition at 100 µg/mL [17, 34] was 60% and the inhibition at 100 µg/mL [17, 35] was 30%.
In the case of `CC(Oc1ccc(F)cc1)C(=O)OC(C)P1(=O)OCC(C)(C)CO1` (centres unmarked) [Compound 44, 2-(4-fluorphenoxyisopropylacyloxy)(methyl)methyl-5,5-dimethyl-1,3,2-dioxaphosphorinan-2-one phosphonate], the pest or weed control at 150 g/ha [13] is reported as 60%, the inhibition at 100 µg/mL [14, 24] is reported as 0% and the inhibition at 100 µg/mL [14, 25] is reported as 0%. The inhibition at 100 µg/mL [2, 26] was 100%, the inhibition at 100 µg/mL [2, 27] was 30% and the inhibition at 100 µg/mL [5, 28] was 0%. It also gave an inhibition at 100 µg/mL [5, 29] of 0%, an inhibition at 100 µg/mL [15, 30] of 0% and an inhibition at 100 µg/mL [15, 31] of 0%. The inhibition at 100 µg/mL [16, 32] was 80%, the inhibition at 100 µg/mL [16, 33] was 30% and the pest or weed control at 150 g/ha [9] was 70%. For the same compound, the pest or weed control at 150 g/ha [10, 22] was 60%, the pest or weed control at 150 g/ha [11, 23] was 50% and the inhibition at 100 µg/mL [17, 34] was 30%. It also gave an inhibition at 100 µg/mL [17, 35] of 30%.
Compound `CC(OC(=O)COc1cccc(C(F)(F)F)c1)P1(=O)OCC(C)(C)CO1` (centres unmarked) [Compound 45, 2-(3-trifluormethylphenoxyethylacyloxy)(methyl)methyl-5,5-dimethyl-1,3,2-dioxaphosphorinan-2-one phosphonate] has a pest or weed control at 150 g/ha [13] of 75%, an inhibition at 100 µg/mL [14, 24] of 70% and an inhibition at 100 µg/mL [14, 25] of 60%. The inhibition at 100 µg/mL [2, 26] was 85%, the inhibition at 100 µg/mL [2, 27] was 30% and the inhibition at 100 µg/mL [5, 28] was 0%. For the same compound, the inhibition at 100 µg/mL [5, 29] was 0%, the inhibition at 100 µg/mL [15, 30] was 80% and the inhibition at 100 µg/mL [15, 31] was 60%. For the same compound, the inhibition at 100 µg/mL [16, 32] was 90%, the inhibition at 100 µg/mL [16, 33] was 60% and the pest or weed control at 150 g/ha [9] was 85%. The pest or weed control at 150 g/ha [10, 22] was 50%, the pest or weed control at 150 g/ha [11, 23] was 50% and the inhibition at 100 µg/mL [17, 34] was 98%. It also gave an inhibition at 100 µg/mL [17, 35] of 50%.
